# Source: US20080063642A1, “Methods of using (+)-1,4-dihydro-7-[(3S,4S)-3-methoxy-4-(methylamino)-1-pyrrolidinyl]-4-oxo-1-(2-thiazolyl)-1,8-naphthyridine-3-carboxylic acid for treatment of certain hematologic disorders” (priority 2006, published 2008)
# Read-outs that look alike come from different tables or passages of the source. Marks after values point to notes of the source that are not given here.
# What was measured:
# [1] = system: CEM/C2 (camptothecan resistant derivative of CCRF-CEM); experiment: MTT cell viability assay, CEM/C2; type: cell-based; conditions: Homo sapiens, MTT after 72 hours
# Protocol: (§1) The following cell lines were used in this assay: HL-60 (promyelocytic leukemia); Jurkat (T cell leukemia); CCRF-CEM (lymphoblastic leukemia); CEM/C2 (camptothecan resistant derivative of CCRF-CEM).
# (§2) Cells were seeded in 96 wells plates at 3000 cells per well and incubated for 16 hours. Compound dilutions were performed in DMSO from 10 mM with 3 fold dilutions. Titrations were diluted 1:100 in media to achieve final compound concentrations. The 96 well plates were aspirated and compound dilutions in media were added ([…]). MTT analysis was carried out after 72 hours of incubation at 37° C. Briefly, […] of MTT solution was added to each well. Cells were incubated at 37° C. for 1-2 hours. Cells were lysed with the addition of […] cell lysis buffer and MTT was solubilized overnight at 37° C. Plates were read on a spectromax machine with an absorbance measurement at […]. IC50's were calculated (data provided in Table 1) using regression analysis within GraphPad Prism.
# [2] = system: CCRF-CEM (lymphoblastic leukemia); experiment: MTT cell viability assay, CCRF-CEM; type: cell-based; conditions: Homo sapiens, MTT after 72 hours
# Protocol: as §1, §2
# bone marrow [3] = experiment: Bone marrow/cytology assay (Example 4): bone marrow cellularity; type: in vivo, Female CD-1 mice
# Protocol: (§3) Blood was drawn on days 6, 8, and 12 post initial injection for hematological analysis. Femurs were extracted on day 6 fixed in Streck and H&E stained prior to bone marrow cellularity analysis. […] At 20 mg/kg, cellularity was reduced to 7.5%, while circulating neutrophils were reduced from a pre-dose level of […] to a nadir of 51±24 cells/mL blood on day 8. Absolute neutrophil counts subsequently rebounded and soon returned to normal levels. Total WBCs also reached a nadir on day 8, but returned to normal levels.
# [4] = system: peripheral neutrophils, white blood cells, platelets; experiment: Combination dosing SNS-595 and Ara-C (Example 5): peripheral cytology; type: in vivo, nu/nu mice; conditions: mouse, in vivo
# Protocol: At various time points described in Table 5, mice were euthanized by CO2 asphyxiation in accordance to Institutional Animal Care and Use Committee (IACUC) guidelines. Blood was collected through cardiac tap and transferred to EDTA tubes. The analysis of murine blood CBC and differential counts for samples in these tubes was conducted (at Quality Clinical Labs, Moutainview). Statistical significance was determined by one-tailed student t-test, using Welch's correction for unequal variances.
# [5] = Bone marrow/cytology assay (Example 4): body weight loss; type: in vivo, Female CD-1 mice; conditions: all dose groups, 5-20 mg/kg
# Protocol: as §3
# FIGS. 5 and 6 show neutrophil and total white blood cell counts from blood samples on day 8 post initial injection. […] Body weight loss was tolerable across all dose groups.
# femoral bone marrow = experiment: Combination dosing SNS-595 and Ara-C (Example 5): femoral bone marrow cellularity; type: in vivo, nu/nu mice
# From the text: Femurs were harvested for histological evaluation. The femur was placed in Streck fixative, paraffin embedded, sectioned, transferred to slides, and H&E stained (at BioPathology Sciences). Immunohistochemical slides were processed and analyzed for percent cellularity of intact bone marrow.
# [6] = mouse, in vivo, iv
# Protocol: The effects of dosing were studied on changes in body weight, peripheral cytology, and femoral bone marrow cellularity over time as described below.
# Before beginning the study, all animals were allowed to acclimatize for 3 days from shipping related stress and the health of the mice was assessed daily by observation. Purified water (reverse osmosis) and irradiated food (PicoLab Rodent Diet 20, #5053; Dean's Animal Feeds, San Carlos, Calif.) were provided ad libitum, and the animals were kept on a 12 hour light and dark cycle.
# [7] = system: myeloid cell lineages in bone marrow; experiment: Monotherapy and combination with Ara-C (Example 6): bone marrow smears, differential counts; type: in vivo, Female CD-1 mice; conditions: SNS-595 treated animals; Day 6
# Protocol: Combination: […] Blood was analyzed at Quality Control Labs (Mountain View, Calif.) for complete blood count and differential count. Bone marrow smears from femurs on Day 6 and Day 12 were prepared and geimsa stained for differential counts. Femurs were also placed in Streck fixative, processed, sectioned and H&E stained. Femur and bone marrow smears were analyzed at BioPathology Sciences (South San Francisco, Calif.) for total cellularity and differential count.
# [8] = system: LM3-Jck human malignant lymphoma tumor; experiment: LM3-Jck xenograft model; type: in vivo; conditions: for IR (%) tumor inhibition rate: LM3-JcK, 21 days after start
# Protocol: LM3-Jck human malignant lymphoma tumor lobes (2-3 mm square) were transplanted subcutaneously into nude mice. Tumors were allowed to grow to approximately 7-14 mm in diameter. […] Acceptable toxicity was defined as a mean group weight loss of 30% or less and not more than one toxic death among 6 treated animals. Anti-tumor activities of the drugs were assessed 21 days after the start of administration.
# bone marrow [9] = experiment: Monotherapy and combination with Ara-C (Example 6): bone marrow total cellularity; type: in vivo, Female CD-1 mice
# Protocol: Blood was analyzed at Quality Control Labs (Mountain View, Calif.) for complete blood count and differential count. Bone marrow smears from femurs on Day 6 and Day 12 were prepared and geimsa stained for differential counts. Femurs were also placed in Streck fixative, processed, sectioned and H&E stained. Femur and bone marrow smears were analyzed at BioPathology Sciences (South San Francisco, Calif.) for total cellularity and differential count. […] The compounds were administered on Day 0 and Day 4.
# [10] = system: circulating neutrophils, WBCs, platelets; parameters: species or system Female CD-1 mice; conditions: mouse, in vivo
# Protocol: as §3
# Jurkat (T cell leukemia) = experiment: MTT cell viability assay, Jurkat; type: cell-based; conditions: Homo sapiens, MTT after 72 hours
# Protocol: as §1, §2
# [11] = system: CCRF-CEM acute lymphoblastic leukemia tumor; experiment: CCRF-CEM xenograft model; type: in vivo; conditions: CCRF-CEM; 25 mg/kg q7d × 3, IV; 20 or 21 days after start
# Protocol: CCRF-CEM acute lymphoblastic leukemia tumor lobes of 2-3 mm square were transplanted subcutaneously into nude mice. Tumors were allowed to grow to approximately 8-20 mm in diameter. […] Acceptable toxicity was defined as a mean group weight loss of 30% or less and not more than one toxic death among 6 treated animals. Anti-tumor activities of the drugs were assessed 20 or 21 days after the start of administration. FIGS. 1-2 and Table 2 provides data for tumor inhibition rate (IR) and survival ratio in the CCRF-CEM and LM3-Jck xenograft models.
# [12] = system: HL-60 (promyelocytic leukemia); experiment: MTT cell viability assay, HL-60; type: cell-based; conditions: Homo sapiens, MTT after 72 hours
# Protocol: as §1, §2
# [13] = CD-1 mouse model; q4d × 2
# [14] = Group 4: SNS-595 15 mg/kg IV q4d × 2
smiles,measurement,setting,value
"CN[C@H]1CN(c2ccc3c(=O)c(C(=O)O)cn(-c4nccs4)c3n2)C[C@@H]1OC [SNS-595, (+)-1,4-dihydro-7-[(3S,4S)-3-methoxy-4-(methylamino)-1-pyrrolidinyl]-4-oxo-1-(2-thiazolyl)-1,8-naphthyridine-3-carboxylic acid]",IC50,[1],0.01 µg/mL
same,IC50,[2],0.018 µg/mL
same,bone marrow cellularity,"bone marrow [3]; 20 mg/kg IV Day 0 and Day 4, femurs day 6",7.5%
same,bone marrow at 12 days post initial injection,"bone marrow [3]; 20 mg/kg, day 12",bone marrow rebound
same,"bone marrow cellularity, dose response","bone marrow [3]; 5, 10, 15, 20 mg/kg IV Day 0 and Day 4, two days after second administration",dose-dependent reduction in cellularity
same,"circulating white blood cells, dose response",[4],dose-dependent reduction
same,day by which neutrophils returned to normal levels,[4],≤ 12 days
same,day by which platelets returned to normal levels,[4],≤ 12 days
same,number of neutrophils versus vehicle group,[4],significantly lower than the vehicle group
same,recovery of white blood cells,[4],failed to return to normal levels by day 18
same,number of platelets versus vehicle group,[4]; 5 mg/kg,not significantly decrease
same,number of circulating white blood cells versus vehicle group,[4]; 10 mg/kg,significantly lower than the vehicle group
same,number of white blood cells versus vehicle group,[4]; 15 mg/kg,significantly lower than the vehicle group
same,body weight loss,[5],tolerable
same,"total cellularity, femur cross section of representative animal","femoral bone marrow; Day 6, SNS-595 5 mg/kg q4d ×2 IV, Animal #23",60%
same,"total cellularity, femur cross section of representative animal","femoral bone marrow; Day 6, SNS-595 10 mg/kg q4d ×2 IV, Animal #44",50%
same,"total cellularity, femur cross section of representative animal","femoral bone marrow; Day 6, SNS-595 15 mg/kg q4d ×2 IV, Animal #63",20%
same,"total cellularity, femur cross section of representative animal","femoral bone marrow; Day 12, SNS-595 15 mg/kg q4d ×2 IV, Animal #73",100%
same,Average Total Cellularity Day 6,femoral bone marrow; Group 2: SNS-595 5 mg/kg IV q4d × 2,70%
same,Average Total Cellularity Day 6,femoral bone marrow; Group 3: SNS-595 10 mg/kg IV q4d × 2,56%
same,Average Total Cellularity Day 6,femoral bone marrow; [14],26%
same,Average Total Cellularity Day 12,femoral bone marrow; [14],100%
same,reduction in cellularity,femoral bone marrow; SNS-595 10 mg/kg IV single agent,44%
same,"bone marrow cellularity, dose response","femoral bone marrow; SNS-595 single agent 5, 10, 15 mg/kg",dose-dependent reduction in bone marrow cellularity
same,% of Body Wt Nadir,[6]; 5 mg/kg,0%
same,Day of Body Wt Nadir,[6]; 5 mg/kg,0 days
same,% of Body Wt Nadir,[6]; 10 mg/kg,0%
same,Day of Body Wt Nadir,[6]; 10 mg/kg,0 days
same,% of Body Wt Nadir,[6]; 15 mg/kg,−2.8%
same,Day of Body Wt Nadir,[6]; 15 mg/kg,7 days
same,immature neutrophils in bone marrow smears,[7],significant increase
same,IR (%) tumor inhibition rate,"[8]; 20 mg/kg q7d × 3, IV",98.9* %
same,IR (%) tumor inhibition rate,"[8]; 25 mg/kg q7d × 3, IV",98.5* %
same,antitumor activity,"[8]; LM-3 Jck malignant lymphoma, 20 and 25 mg/kg",complete tumor regressions
same,Total Cellularity (Avg) Exp #2,bone marrow [9]; SNS-595 10 mg/kg q4d × 2,54%
same,Total Cellularity (Avg) Exp #1,"bone marrow [9]; SNS-595 10 mg/kg q4d × 2, two days after completion of treatment, 10 mg/kg",56%
same,Total Cellularity (Avg) Exp #2,bone marrow [9]; SNS-595 20 mg/kg q4d × 2,18%
same,platelet response,[10],minor platelet response
same,day of total WBC nadir,[10]; iv,8 days
same,IC50,Jurkat (T cell leukemia),0.023 µg/mL
same,IR (%) tumor inhibition rate,[11],98.1* %
same,IC50,[12],0.053 µg/mL
same,maximum tolerated dose (MTD),[13],SNS-595 20 mg/kg q4d × 2*
